This is an account of results in patent publication US12234238B2, “Antimicrobial compounds and methods of making and using the same” (BIOVERSYS AG, priority 2017, dated 2025).

Assay [1] has as its system Staphylococcus aureus (S. aureus) 11540 strain. The assay is described as follows: standard microdilution assay to determine minimum inhibitory concentrations (MICs), S. aureus. It counts as cell-based. The protocol:
(§1) The in vitro activity of the compounds of the present disclosure can be determined. Antimicrobial testing is typically performed to determine the minimum inhibitory concentration (MIC). Minimum inhibitory concentrations (MICs) are determined by the microdilution method in a final volume of 100 μl according to protocols outlined by The Clinical and Laboratory Standards Institute (CLSI). Performance standards for reference strains are assessed within the same experimental design to maintain quality control. See, for example, Clinical Laboratory Standards Institute: Methods for dilution antimicrobial susceptibility tests for bacteria that grow aerobically M7-A8. Approved Standard-Eighth Edition. Wayne, PA: CLSI; December 2008: and Clinical Laboratory Standards Institute: Performance Standards for Antimicrobial Susceptibility Testing M100-S20; Approved Standard-Twentieth Edition. Wayne, PA: CLSI; June 2010. The compounds of the present disclosure were tested for antimicrobial activity. The Compounds 1-122 were run against Eschericia coli (E. coli) strain ATCC25922 and against Staphylococcus aureus (S. aureus) 11540 strain using a standard microdilution assay to determine minimum inhibitory concentrations (MICs). […] It will be recognized by one skilled in the art that the compounds can be assessed against other bacterial organisms and that the presentation of data for activity against Eschericia coli and Staphylococcus aureus are illustrative and in no way is intended to limit the scope of the present disclosure. The compounds of the present disclosure can be assayed against a range of other microorganisms depending upon the performance activity desired to be gathered. Furthermore, the “+” and “−” representation and the selection of a cutoff value of 16 micrograms/mL is also illustrative and in no way is intended to limit the scope of the present disclosure.

Assay [2] concerns Eschericia coli (E. coli) strain ATCC25922. Kind of assay: standard microdilution assay to determine minimum inhibitory concentrations (MICs), E. coli. It counts as cell-based. The note with it: Escherichia coli. The protocol:
as §1

As to `C[C@H](N)CCCc1cc(Cl)c(F)c(-c2cc3cn(-c4ccc([C@@H]5CCCCN5CCCSC(=N)N)cc4)c(=O)nc3[nH]2)c1` [Compound 12], the MIC in assay [1] and in assay [2] was at most 16 µg/mL in each case.

For `N=C(N)SCC[C@@H]1CCC[C@@H](c2ccc(-n3cc4cc(C5C[C@H]6CCCC[C@@H]6N5)[nH]c4nc3=O)cc2)N1` (stereo partly shown) [Compound 51], the MIC in assay [1] and in assay [2] was at most 16 µg/mL each time.

On to `C[C@@H](N)CCCN1C[C@H](F)CC1c1cc2cn(-c3ccc([C@@H]4CCC[C@@H](CCSC(=N)N)N4)cc3)c(=O)nc2[nH]1` (stereo partly shown) [Compound 69], for which the MIC in assay [1] and in assay [2] was at most 16 µg/mL throughout.

Take `C[C@@H](N)CCCN1C[C@H](OCc2ccccc2)CC1c1cc2cn(-c3ccc([C@@H]4CCC[C@@H](CCSC(=N)N)N4)cc3)c(=O)nc2[nH]1` (stereo partly shown) [Compound 63]: the MIC in assay [1] and in assay [2] was at most 16 µg/mL throughout.

With `Cc1ccccc1OC[C@H](N)CCCc1cc(Cl)c(F)c(-c2cc3cn(-c4ccc([C@@H]5CCC[C@@H](CCSC(=N)N)N5)cc4)c(=O)nc3[nH]2)c1` [Compound 40], the MIC in assay [1] and in assay [2] was at most 16 µg/mL throughout.

With `C[C@@H](N)CCCN1CC(C)(C)CC1c1cc2cn(-c3ccc([C@@H]4CCC[C@@H](CCSC(=N)N)N4)cc3)c(=O)nc2[nH]1` (stereo partly shown) [Compound 74], the MIC in assay [1] and in assay [2] was at most 16 µg/mL throughout.

On to `C[C@H](NCC[C@H](C)SC(=N)N)c1ccc(-n2cc3cc(-c4cc(CCC[C@@H](N)C5CC5)cc(Cl)c4F)[nH]c3nc2=O)cc1` [Compound 11], for which the MIC in assay [1] and in assay [2] was at most 16 µg/mL in each case.

As to `C=CCSC(=N)NCC[C@@H]1CCC[C@@H](c2ccc(-n3cc4cc(-c5cc(CCC[C@H](C)N)cc(Cl)c5F)[nH]c4nc3=O)cc2)N1` [Compound 122], the MIC in assay [1] and in assay [2] was at most 16 µg/mL each time.

As to `C[C@H](N)CCCc1cc(Cl)c(F)c(-c2cc3cn(-c4ccc([C@@H]5CCC[C@@H](CCSC(=N)N)N5)c(F)c4)c(=O)nc3[nH]2)c1` [Compound 21], the MIC in assay [1] and in assay [2] was at most 16 µg/mL each time.

For `C[C@H](N)CCCc1cc(Cl)c(F)c(-c2cc3cn(-c4ccc([C@@H]5CCC[C@@H](CCSC(=N)N)N5CCF)cc4)c(=O)nc3[nH]2)c1` [Compound 98], the minimal inhibitory concentration (MIC) in assay [1] and in assay [2] was at most 16 µg/mL throughout.

As for `C[C@@H](N)CCCN1C(c2cc3cn(-c4ccc([C@@H]5CCC[C@@H](CCSC(=N)N)N5)cc4)c(=O)nc3[nH]2)CC[C@@H]1c1ccccc1` (stereo partly shown) [Compound 77], the MIC in assay [1] was over 16 µg/mL; in assay [2], at most 16 µg/mL.

Regarding `C=CCN1[C@H](CCSC(=N)N)CCC[C@H]1c1ccc(-n2cc3cc(-c4cc(CCC[C@H](C)N)cc(Cl)c4F)[nH]c3nc2=O)cc1` [Compound 46], the minimal inhibitory concentration (MIC) in assay [1] and in assay [2] was at most 16 µg/mL each time.

For the molecule `CC(C[C@@H]1CCC[C@@H](c2ccc(-n3cc4cc(-c5cc(CCC[C@H](C)N)cc(Cl)c5F)[nH]c4nc3=O)cc2)N1)SC(=N)N` (stereo partly shown) [Compound 78], the MIC in assay [1] and in assay [2] was at most 16 µg/mL throughout.

For `C[C@H](N)CCCN1CCCC1c1cc2cn(-c3ccc([C@@H]4CCC[C@@H](CCSC(=N)N)N4)cc3)c(=O)nc2[nH]1` (stereo partly shown) [Compound 31], the MIC in assay [1] and in assay [2] was at most 16 µg/mL throughout.

`C/N=C(\NC)SCC[C@@H]1CCC[C@@H](c2ccc(-n3cc4cc(-c5cc(CCC[C@H](C)N)cc(Cl)c5F)[nH]c4nc3=O)cc2)N1` [Compound 43]: the MIC in assay [1] and in assay [2] was at most 16 µg/mL each time.

Regarding `C[C@H](N)CCCc1cc(Cl)c(F)c(-c2cc3cn(-c4ccc([C@H](C)NCC[C@H](C)SC(=N)N)cc4)c(=O)nc3[nH]2)c1` [Compound 26], the minimal inhibitory concentration (MIC) in assay [1] and in assay [2] was at most 16 µg/mL in each case.

Take `C[C@H](N)CCCc1cc(Cl)c(F)c(-c2cc3cn(-c4ccc([C@H]5C[C@H](CCSC(=N)N)CN5CCCF)cc4)c(=O)nc3[nH]2)c1` [Compound 117]: the MIC in assay [1] and in assay [2] was at most 16 µg/mL throughout.
